Consider three compounds from patent US20240246942A1, “KINASE INHIBITORS FOR THE TREATMENT OF NEURODEGENERATIVE DISEASES” (priority 2020, published 2024).

SMILES strings stand for the structures. Like-named read-outs stand apart in the source and are kept apart here.

Common to all, as to assay: biochemical
Assay [1] deals with T1, panel of 374 wild-type kinases (Homo sapiens, UniProt P08922).
T1 construct: purchased Reaction Biology Corporation
The conditions noted are these: read-out: % Enzyme Activity (relative to DMSO controls), kinase ROS/ROS1.

The target of assay [2] is T2, panel of 374 wild-type kinases (Homo sapiens, UniProt P54753).
T2 construct: purchased Reaction Biology Corporation
T2 sequence (P54753 34-998): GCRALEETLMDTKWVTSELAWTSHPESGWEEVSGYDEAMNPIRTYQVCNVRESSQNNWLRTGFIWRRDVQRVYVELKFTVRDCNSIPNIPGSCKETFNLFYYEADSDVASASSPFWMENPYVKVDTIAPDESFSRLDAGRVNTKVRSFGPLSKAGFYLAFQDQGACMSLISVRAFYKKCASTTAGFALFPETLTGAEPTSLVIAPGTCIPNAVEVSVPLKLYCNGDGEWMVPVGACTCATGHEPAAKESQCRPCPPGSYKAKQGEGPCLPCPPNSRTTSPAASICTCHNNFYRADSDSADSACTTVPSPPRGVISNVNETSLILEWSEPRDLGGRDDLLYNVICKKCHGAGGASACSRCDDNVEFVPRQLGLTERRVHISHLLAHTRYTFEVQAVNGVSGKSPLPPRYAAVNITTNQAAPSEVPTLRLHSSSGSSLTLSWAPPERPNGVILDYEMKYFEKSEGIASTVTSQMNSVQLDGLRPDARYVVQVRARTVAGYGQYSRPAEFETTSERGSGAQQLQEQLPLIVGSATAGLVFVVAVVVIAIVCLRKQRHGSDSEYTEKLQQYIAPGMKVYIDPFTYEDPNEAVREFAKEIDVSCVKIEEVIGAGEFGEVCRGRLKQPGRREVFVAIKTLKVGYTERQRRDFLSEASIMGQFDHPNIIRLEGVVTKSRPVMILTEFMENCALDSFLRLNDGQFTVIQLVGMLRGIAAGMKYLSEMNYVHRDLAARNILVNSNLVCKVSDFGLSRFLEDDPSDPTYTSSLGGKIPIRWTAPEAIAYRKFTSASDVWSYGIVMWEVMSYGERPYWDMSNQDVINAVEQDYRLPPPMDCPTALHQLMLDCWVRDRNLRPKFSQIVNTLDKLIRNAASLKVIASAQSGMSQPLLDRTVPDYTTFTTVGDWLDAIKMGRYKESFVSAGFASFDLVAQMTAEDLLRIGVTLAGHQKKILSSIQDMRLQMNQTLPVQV
The following applies: read-out: % Enzyme Activity (relative to DMSO controls), EPHB3.

The target of assay [3] is T3, panel of 374 wild-type kinases (Homo sapiens, UniProt Q00535).
T3 construct: purchased Reaction Biology Corporation

Assay [4] has as its target T4, panel of 374 wild-type kinases (Homo sapiens, UniProt Q13164).
T4 construct: purchased Reaction Biology Corporation
The conditions noted are these: read-out: % Enzyme Activity (relative to DMSO controls), ERK5/MAPK7.

Assay [5] concerns the target T5, panel of 374 wild-type kinases (Homo sapiens, UniProt Q13177).
T5 construct: purchased Reaction Biology Corporation
The conditions noted are these: read-out: % Enzyme Activity (relative to DMSO controls), kinase PAK2.

Assay [6] deals with T6, panel of 374 wild-type kinases (Homo sapiens, UniProt Q16584).
T6 construct: purchased Reaction Biology Corporation
The following applies: read-out: % Enzyme Activity (relative to DMSO controls), MLK3/MAP3K11.

For assay [7], the target named is T7, panel of 374 wild-type kinases (Homo sapiens, UniProt Q9BXA6).
T7 construct: purchased Reaction Biology Corporation
The following applies: read-out: % Enzyme Activity (relative to DMSO controls), kinase SSTK/TSSK6.

Assay [8] addresses T8, panel of 374 wild-type kinases (Homo sapiens, UniProt Q9NYY3).
T8 construct: purchased Reaction Biology Corporation
The conditions noted are these: read-out: % Enzyme Activity (relative to DMSO controls), kinase PLK2.

Assay [9] addresses T9, panel of 374 wild-type kinases (Homo sapiens, UniProt Q9UF33).
T9 construct: purchased Reaction Biology Corporation
T9 sequence (Q9UF33 23-1036): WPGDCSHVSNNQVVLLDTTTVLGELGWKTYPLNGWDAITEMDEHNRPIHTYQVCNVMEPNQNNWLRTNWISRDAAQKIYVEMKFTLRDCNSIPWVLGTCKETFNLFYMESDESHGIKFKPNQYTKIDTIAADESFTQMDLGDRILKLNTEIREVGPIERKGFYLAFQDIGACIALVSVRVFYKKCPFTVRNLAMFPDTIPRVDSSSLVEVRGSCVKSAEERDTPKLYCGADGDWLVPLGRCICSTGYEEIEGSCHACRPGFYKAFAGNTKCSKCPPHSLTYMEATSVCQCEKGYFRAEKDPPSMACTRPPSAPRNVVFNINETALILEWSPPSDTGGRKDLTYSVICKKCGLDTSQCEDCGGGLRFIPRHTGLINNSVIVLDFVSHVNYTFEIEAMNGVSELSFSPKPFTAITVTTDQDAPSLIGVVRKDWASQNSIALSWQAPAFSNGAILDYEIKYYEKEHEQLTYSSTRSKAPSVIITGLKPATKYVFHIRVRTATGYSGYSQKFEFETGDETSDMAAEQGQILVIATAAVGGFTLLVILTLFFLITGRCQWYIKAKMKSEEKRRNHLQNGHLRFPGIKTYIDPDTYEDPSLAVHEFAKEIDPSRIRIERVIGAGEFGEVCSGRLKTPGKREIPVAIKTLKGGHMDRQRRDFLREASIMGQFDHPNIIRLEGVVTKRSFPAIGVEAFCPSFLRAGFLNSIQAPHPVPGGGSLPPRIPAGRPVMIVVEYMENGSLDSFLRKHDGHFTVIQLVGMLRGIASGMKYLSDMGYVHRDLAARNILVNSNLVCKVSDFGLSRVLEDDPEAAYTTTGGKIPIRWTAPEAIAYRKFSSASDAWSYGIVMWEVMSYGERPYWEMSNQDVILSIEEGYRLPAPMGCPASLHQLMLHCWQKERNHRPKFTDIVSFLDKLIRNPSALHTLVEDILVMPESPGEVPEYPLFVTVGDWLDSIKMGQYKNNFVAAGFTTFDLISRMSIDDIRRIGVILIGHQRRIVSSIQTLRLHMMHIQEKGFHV
The following applies: EPHA6, read-out: % Enzyme Activity (relative to DMSO controls).

Setting [10] is: read-out: % Enzyme Activity (relative to DMSO controls), CDK5/P25.
Setting [11] is: read-out: % Enzyme Activity (relative to DMSO controls), CDK5/p35.

T8 sequence (Q9NYY3 whole entry): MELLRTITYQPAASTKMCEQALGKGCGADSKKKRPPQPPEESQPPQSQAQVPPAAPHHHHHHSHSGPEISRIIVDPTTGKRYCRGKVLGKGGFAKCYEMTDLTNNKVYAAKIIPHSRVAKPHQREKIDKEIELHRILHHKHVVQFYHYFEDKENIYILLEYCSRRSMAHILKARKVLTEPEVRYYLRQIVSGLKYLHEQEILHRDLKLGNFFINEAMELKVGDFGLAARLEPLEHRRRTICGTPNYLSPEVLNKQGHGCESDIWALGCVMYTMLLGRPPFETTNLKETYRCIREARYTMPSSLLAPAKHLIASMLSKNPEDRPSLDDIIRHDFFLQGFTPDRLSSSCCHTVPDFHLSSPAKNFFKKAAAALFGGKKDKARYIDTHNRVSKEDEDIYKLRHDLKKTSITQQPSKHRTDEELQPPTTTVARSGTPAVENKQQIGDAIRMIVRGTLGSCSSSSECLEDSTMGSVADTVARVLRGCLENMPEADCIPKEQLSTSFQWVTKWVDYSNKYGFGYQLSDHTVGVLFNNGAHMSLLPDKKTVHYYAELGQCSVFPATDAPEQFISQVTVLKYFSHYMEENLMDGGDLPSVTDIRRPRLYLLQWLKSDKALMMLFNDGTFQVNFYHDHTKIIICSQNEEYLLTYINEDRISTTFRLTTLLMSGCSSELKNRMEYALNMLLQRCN
T5 sequence (Q13177 whole entry): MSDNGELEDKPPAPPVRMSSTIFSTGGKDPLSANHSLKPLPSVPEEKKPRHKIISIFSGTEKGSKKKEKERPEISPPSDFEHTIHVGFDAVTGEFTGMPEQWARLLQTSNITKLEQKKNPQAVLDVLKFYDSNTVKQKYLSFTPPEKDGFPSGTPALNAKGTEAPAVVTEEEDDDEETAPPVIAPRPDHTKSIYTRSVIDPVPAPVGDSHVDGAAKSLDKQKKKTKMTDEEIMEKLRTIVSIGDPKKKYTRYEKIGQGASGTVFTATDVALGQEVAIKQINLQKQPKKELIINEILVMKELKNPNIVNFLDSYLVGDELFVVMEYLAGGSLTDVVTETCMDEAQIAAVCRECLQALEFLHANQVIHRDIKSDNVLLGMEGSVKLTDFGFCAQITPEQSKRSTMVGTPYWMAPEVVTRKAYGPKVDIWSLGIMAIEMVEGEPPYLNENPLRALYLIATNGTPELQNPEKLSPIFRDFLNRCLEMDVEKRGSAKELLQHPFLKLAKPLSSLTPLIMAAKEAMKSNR
T6 sequence (Q16584 whole entry): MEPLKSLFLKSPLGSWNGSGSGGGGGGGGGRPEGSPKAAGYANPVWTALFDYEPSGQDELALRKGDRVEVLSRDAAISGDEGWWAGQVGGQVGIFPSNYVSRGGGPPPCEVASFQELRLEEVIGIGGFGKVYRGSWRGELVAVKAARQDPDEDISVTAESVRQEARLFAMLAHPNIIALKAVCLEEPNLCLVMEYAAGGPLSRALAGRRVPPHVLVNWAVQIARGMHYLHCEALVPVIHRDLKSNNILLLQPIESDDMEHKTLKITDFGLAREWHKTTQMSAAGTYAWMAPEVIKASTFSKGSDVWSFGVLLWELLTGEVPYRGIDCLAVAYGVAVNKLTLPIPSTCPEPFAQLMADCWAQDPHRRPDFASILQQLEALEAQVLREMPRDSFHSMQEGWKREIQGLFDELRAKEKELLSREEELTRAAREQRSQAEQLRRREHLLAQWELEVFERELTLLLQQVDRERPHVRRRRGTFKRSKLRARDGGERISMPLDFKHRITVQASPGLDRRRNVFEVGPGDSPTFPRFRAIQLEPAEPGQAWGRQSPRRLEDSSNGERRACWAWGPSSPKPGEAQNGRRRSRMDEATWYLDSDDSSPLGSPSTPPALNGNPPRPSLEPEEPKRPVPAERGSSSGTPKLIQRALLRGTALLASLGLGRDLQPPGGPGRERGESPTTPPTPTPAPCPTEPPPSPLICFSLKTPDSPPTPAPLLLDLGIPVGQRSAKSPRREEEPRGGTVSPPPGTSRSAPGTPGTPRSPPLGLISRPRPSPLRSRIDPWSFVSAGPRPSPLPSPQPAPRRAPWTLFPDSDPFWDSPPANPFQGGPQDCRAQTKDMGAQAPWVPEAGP
T4 sequence (Q13164 whole entry): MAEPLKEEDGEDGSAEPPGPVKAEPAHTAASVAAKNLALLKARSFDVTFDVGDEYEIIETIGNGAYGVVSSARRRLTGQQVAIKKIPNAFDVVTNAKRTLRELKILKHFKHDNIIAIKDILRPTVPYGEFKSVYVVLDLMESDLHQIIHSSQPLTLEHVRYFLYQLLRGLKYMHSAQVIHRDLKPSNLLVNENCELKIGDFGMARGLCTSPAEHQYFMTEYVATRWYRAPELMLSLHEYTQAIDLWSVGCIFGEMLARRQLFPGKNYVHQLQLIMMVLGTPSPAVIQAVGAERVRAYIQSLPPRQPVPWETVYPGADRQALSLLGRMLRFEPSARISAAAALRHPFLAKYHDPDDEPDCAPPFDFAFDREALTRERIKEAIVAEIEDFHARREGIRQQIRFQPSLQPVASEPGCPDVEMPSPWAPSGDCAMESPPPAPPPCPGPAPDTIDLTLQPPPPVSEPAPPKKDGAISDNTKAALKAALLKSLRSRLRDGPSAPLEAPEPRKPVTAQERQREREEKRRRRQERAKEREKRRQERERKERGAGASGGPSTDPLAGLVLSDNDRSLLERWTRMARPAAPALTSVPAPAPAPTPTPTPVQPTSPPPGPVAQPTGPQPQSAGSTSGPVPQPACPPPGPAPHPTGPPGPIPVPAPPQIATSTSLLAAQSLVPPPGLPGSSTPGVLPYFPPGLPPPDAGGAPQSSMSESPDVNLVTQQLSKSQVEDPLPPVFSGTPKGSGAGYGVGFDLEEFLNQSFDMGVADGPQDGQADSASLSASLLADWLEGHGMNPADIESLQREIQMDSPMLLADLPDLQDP
T3 sequence (Q00535 whole entry): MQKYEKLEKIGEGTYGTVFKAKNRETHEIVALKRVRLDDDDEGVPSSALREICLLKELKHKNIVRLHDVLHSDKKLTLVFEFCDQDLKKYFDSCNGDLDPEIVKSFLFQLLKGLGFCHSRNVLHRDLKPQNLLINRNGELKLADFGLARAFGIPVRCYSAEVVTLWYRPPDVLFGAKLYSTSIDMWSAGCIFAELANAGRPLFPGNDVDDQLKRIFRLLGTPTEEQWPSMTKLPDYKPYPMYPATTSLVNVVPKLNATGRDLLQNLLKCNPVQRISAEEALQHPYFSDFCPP
T7 sequence (Q9BXA6 whole entry): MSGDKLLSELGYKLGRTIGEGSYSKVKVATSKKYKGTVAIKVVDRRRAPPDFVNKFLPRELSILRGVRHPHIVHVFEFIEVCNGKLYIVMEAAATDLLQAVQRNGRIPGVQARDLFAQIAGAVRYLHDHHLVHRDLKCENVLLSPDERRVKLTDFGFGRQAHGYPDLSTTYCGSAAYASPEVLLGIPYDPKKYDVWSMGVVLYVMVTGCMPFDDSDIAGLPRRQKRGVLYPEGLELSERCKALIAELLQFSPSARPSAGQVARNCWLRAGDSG

With `Cc1sc(C(=O)NC2COC2)cc1-n1cc(NC(=O)Nc2c(F)cccc2Cl)cn1` [Compound 27, 4-(4-(3-(2-chloro-6-fluorophenyl)ureido)-1H-pyrazol-1-yl)-5-methyl-N-(oxetan-3-yl)thiophene-2-carboxamide], the remaining activity at 10 µM in [1] (10 uM) was 102%; in assay [2] (10 uM), 97.2%; in assay [3] (setting [10]) it was 97.6%; in assay [3] (setting [11]), 103%; in [4] (10 uM) it was 95.7%; in assay [5] (10 uM), 106%. Moreover, the remaining activity at 10 µM in assay [6] (10 uM) amounted to 90.7%; in [7] (10 uM), 94%; in [8] (10 uM), 95.2%; in assay [9] (10 uM) it was 80.2%.

For the compound `O=C(Nc1cnn(-c2csc(C(=O)NC3COC3)c2)c1)Nc1c(F)cccc1Cl` [Compound 25, 4-(4-(3-(2-chloro-6-fluorophenyl)ureido)-1H-pyrazol-1-yl)-N-(oxetan-3-yl)thiophene-2-carboxamide], the remaining activity at 5 µM in assay [1] is 85.5%; in [2], 96.5%; in [3] (setting [10]) it was 88.2%; in [3] (setting [11]), 94.3%; in assay [4] it was 75.9%; in assay [5], 95.3%. Moreover, the remaining activity at 5 µM in [6] was 84.7%; in assay [7], 103%; in assay [8] it was 100%; in [9], 95.7%.

Take `O=C(Nc1cnn(-c2csc(C(=O)NC3COC3)c2)c1)Nc1ccccc1Cl` [Compound 17, 4-(4-(3-(2-chlorophenyl)ureido)-1H-pyrazol-1-yl)-N-(oxetan-3-yl)thiophene-2-carboxamide]: the remaining activity at 5 µM turned out to be 103% in assay [1]; 95.6% in assay [2]; 101% in [3] (setting [10]); 95.4% in [3] (setting [11]); 119% in assay [4]; 90.1% in assay [5]. In addition, the remaining activity at 5 µM in [6] was found to be 93.5%; in assay [7] it was 103%; in [8], 86%; in assay [9], 99.5%.
